Measured values reported in ChEMBL document CHEMBL4346665, “Synthesis and evaluation of tetrahydroquinolin-2(1H)-one derivatives as novel anti-pancreatic cancer agents via targeting autophagy” (Eur J Med Chem, 2019).

Columns and labels:
Details in all cases: PANC-1, 24 h
PANC-1 [1] = test: Growth inhibition of human PANC1 cells in nutrient-deprived medium at 10 uM incubated for 24 hrs by MTT assay (reference value: 0.0 +/- 1.9%); assay type: functional
PANC-1 [2] = test: Growth inhibition of human PANC1 cells in nutrient-rich medium at 10 uM incubated for 24 hrs by MTT assay (reference value: 0.0 +/- 3.8%); assay type: functional
PANC-1 [3] = test: Growth inhibition of human PANC1 cells in nutrient-deprived medium incubated for 24 hrs by MTT assay; assay type: functional, cell-based

IC50 (PANC-1 [3]) [µM] | Compound | inhibition at 10 µM (PANC-1 [1]) [%] | inhibition at 10 µM (PANC-1 [2]) [%]
7.1 | COc1ccc(NC(=O)Oc2cc(=O)n(CCCO)c3c2CC(C/C=C(\C)CCC=C(C)C)C(C)(C)C3)cc1 (stereo not drawn) | 64.1 | 0
7.3 | CCOc1cc(=O)n(CCCO)c2c1CC(CC=C(C)C)C(C)(C)C2 (stereo not drawn) | 66.5 | 16.6
7.4 | CC(C)=CCC/C(C)=C/CC1Cc2c(OC(=O)Nc3ccccc3F)cc(=O)n(CCCO)c2CC1(C)C (stereo not drawn) | 71.6 | 0
7.7 | COc1ccccc1NC(=O)Oc1cc(=O)n(CCCO)c2c1CC(CC=C(C)C)C(C)(C)C2 (stereo not drawn) | 71.1 | 0
7.3 | CC(C)=CCC1Cc2c(OC(=O)Nc3ccc(F)c(F)c3)cc(=O)n(CCCO)c2CC1(C)C (stereo not drawn) | 76.7 | 0
6.8 | CC(C)=CCC1Cc2c(OC(=O)Nc3ccc(F)c(Cl)c3)cc(=O)n(CCCO)c2CC1(C)C (stereo not drawn) | 79.8 | 0
